Laboratory results reported in the NIST ThermoML archive (doi:10.1021/je500380x).

Assay: mn = molality of the nth substance listed, in mol/kg
Settings: 100 kPa, Liquid; for electrical conductivity: Alternating current cell with electrodes; for viscosity: Falling or rolling sphere viscometry; for mass density: Vibrating tube method

CCC(=O)OCCN1CCNCC1 [2-(piperazin-1-yl)ethyl propionate] + CO
Settings | electrical conductivity, 318.15 K [S/m] | electrical conductivity, 323.15 K [S/m] | mass density, 318.15 K [kg/m3] | mass density, 323.15 K [kg/m3] | viscosity, 318.15 K [mPa·s] | viscosity, 323.15 K [mPa·s]
m1 = 0.05 | – | 0.148 | 770.7 | 765.85 | 0.459 | 0.437
m1 = 0.1001 | – | 0.244 | 773.8 | 768.95 | 0.468 | 0.445
m1 = 0.2006 | – | 0.406 | 779.98 | 775.15 | 0.493 | 0.467
m1 = 0.3003 | – | 0.529 | 786.11 | 781.29 | 0.521 | 0.492
m1 = 0.3995 | – | 0.625 | 792.25 | 787.45 | 0.55 | 0.519
m1 = 0.5005 | – | 0.709 | 798.42 | 793.64 | 0.584 | 0.549
m1 = 0.6006 | – | 0.782 | 804.74 | 799.99 | 0.622 | 0.583
m1 = 0.7007 | – | 0.833 | 811.06 | 806.34 | 0.66 | 0.617
m1 = 0.8007 | – | 0.889 | 817.27 | 812.57 | 0.708 | 0.661
m1 = 0.9008 | – | 0.927 | 823.51 | 818.85 | 0.759 | 0.707
m1 = 1.001 | – | 0.976 | 829.66 | 825.02 | 0.814 | 0.757
m1 = 1.2 | – | 1.017 | 842.24 | 837.66 | 0.935 | 0.866
m1 = 1.401 | – | 1.042 | 855.48 | 850.96 | 1.102 | 1.016
m1 = 1.6 | – | 1.045 | 868.17 | 863.7 | 1.306 | 1.199
m1 = 1.801 | – | 1.032 | 881.62 | 877.22 | 1.571 | 1.436
m1 = 2 | 0.932 | 0.996 | 894.99 | 890.65 | 1.922 | 1.748
m1 = 2.203 | 0.874 | 0.933 | 909.04 | 904.77 | 2.355 | 2.13
m1 = 2.403 | 0.809 | 0.866 | 922.36 | 918.16 | 2.99 | 2.685
m1 = 2.603 | 0.724 | 0.781 | 935.25 | 931.01 | 3.793 | 3.381
m1 = 2.803 | 0.656 | 0.708 | 948.64 | 944.56 | 4.897 | 4.325
m1 = 3.001 | – | – | 962.47 | 958.45 | 6.668 | 5.906
m1 = 3.006 | 0.583 | 0.636 | – | – | – | –
